BindingDB's records for doi:10.1021/jm0101390 (Harvard Medical School, 2001)

Target: Aldehyde dehydrogenase, mitochondrial (Mesocricetus auratus)
Assay: Inhibition of hamster liver aldehyde dehydrogenase ALDH-2

| SMILES | IC50 |
| --- | --- |
| CCOc1ccc2c(=O)c(-c3ccc(O)cc3)coc2c1 [7-Ethoxy-3-(4-hydroxy-phenyl)-chromen-4-one] | 80 nM |
| CCOC(=O)CCCCCOc1ccc2c(=O)c(-c3ccc(O)cc3)coc2c1 [6-[3-(4-Hydroxy-phenyl)-4-oxo-4H-chromen-7-yloxy]-hexanoic acid ethyl ester] | 280 nM |
| O=C(O)CCCCCCCCCCCOc1ccc2c(=O)c(-c3ccc(O)cc3)coc2c1 [12-(3-(4-hydroxyphenyl)-4-oxo-4H-chromen-7-yloxy)dodecanoic acid] | 130 nM |
| O=C(O)COc1ccc2c(=O)c(-c3ccc(O)cc3)coc2c1 [2-(3-(4-hydroxyphenyl)-4-oxo-4H-chromen-7-yloxy)acetic acid] | 1200 nM |
| O=c1c(-c2ccc(O)cc2)coc2cc(OCCCCCCCCCO)ccc12 [7-(9-Hydroxy-nonyloxy)-3-(4-hydroxy-phenyl)-chromen-4-one] | 700 nM |
| CCOC(=O)COc1ccc2c(=O)c(-c3ccc(O)cc3)coc2c1 [[3-(4-Hydroxy-phenyl)-4-oxo-4H-chromen-7-yloxy]-acetic acid ethyl ester] | 130 nM |
| O=C(O)CCCCOc1ccc2c(=O)c(-c3ccc(O)cc3)coc2c1 [5-[3-(4-Hydroxy-phenyl)-4-oxo-4H-chromen-7-yloxy]-pentanoic acid] | 100 nM |
| O=c1c(-c2ccc(O)cc2)coc2cc(OCCCCCCO)ccc12 [7-(6-Hydroxy-hexyloxy)-3-(4-hydroxy-phenyl)-chromen-4-one] | 120 nM |
| CCCCCCCCCCCCOc1ccc2c(=O)c(-c3ccc(O)cc3)coc2c1 [7-(dodecyloxy)-3-(4-hydroxyphenyl)-4H-chromen-4-one] | > 9000 nM |
| O=C(O)CCCCCCCOc1ccc2c(=O)c(-c3ccc(O)cc3)coc2c1 [8-(3-(4-hydroxyphenyl)-4-oxo-4H-chromen-7-yloxy)octanoic acid] | 40 nM |
| O=c1c(-c2ccc(O)cc2)coc2cc(OCCCCCCCCCCCCO)ccc12 [7-(12-Hydroxy-dodecyloxy)-3-(4-hydroxy-phenyl)-chromen-4-one] | 1700 nM |
| O=c1c(-c2ccc(O)cc2)coc2cc(OCCOCCOCCO)ccc12 [7-(2-(2-(2-hydroxyethoxy)ethoxy)ethoxy)-3-(4-hydroxyphenyl)-4H-chromen-4-one] | 40 nM |
| CCCCCCOc1ccc2c(=O)c(-c3ccc(O)cc3)coc2c1 [7-Hexyloxy-3-(4-hydroxyphenyl)chromen-4-one] | 1500 nM |
| CCCCC(Oc1ccc2c(=O)c(-c3ccc(O)cc3)coc2c1)C(=O)OCC (configuration not stated) [2-[3-(4-Hydroxy-phenyl)-4-oxo-4H-chromen-7-yloxy]-hexanoic acid ethyl ester] | 4500 nM |
| O=C(O)CCCCCCOc1ccc2c(=O)c(-c3ccc(O)cc3)coc2c1 [7-[3-(4-Hydroxy-phenyl)-4-oxo-4H-chromen-7-yloxy]-heptanoic acid] | 50 nM |
| CC(C)Oc1ccc2c(=O)c(-c3ccc(O)cc3)coc2c1 [3-(4-Hydroxy-phenyl)-7-isopropoxy-chromen-4-one] | 80 nM |
| CCCCCCC(Oc1ccc2c(=O)c(-c3ccc(O)cc3)coc2c1)C(=O)OCC (configuration not stated) [2-[3-(4-Hydroxy-phenyl)-4-oxo-4H-chromen-7-yloxy]-octanoic acid ethyl ester] | 7200 nM |
| CCOC(=O)CCCCOc1ccc2c(=O)c(-c3ccc(O)cc3)coc2c1 [5-[3-(4-Hydroxy-phenyl)-4-oxo-4H-chromen-7-yloxy]-pentanoic acid ethyl ester] | 240 nM |
| CCCCCCC(Oc1ccc2c(=O)c(-c3ccc(O)cc3)coc2c1)C(=O)O (configuration not stated) [2-[3-(4-Hydroxy-phenyl)-4-oxo-4H-chromen-7-yloxy]-octanoic acid] | 2000 nM |
| NCCCCCCOc1ccc2c(=O)c(-c3ccc(O)cc3)coc2c1 [7-(6-Amino-hexyloxy)-3-(4-hydroxy-phenyl)-chromen-4-one] | 100 nM |
| CC(Oc1ccc2c(=O)c(-c3ccc(O)cc3)coc2c1)C(=O)O (configuration not stated) [2-[3-(4-Hydroxy-phenyl)-4-oxo-4H-chromen-7-yloxy]-propionic acid] | 2500 nM |
| O=C(O)CCCCCCCCCOc1ccc2c(=O)c(-c3ccc(O)cc3)coc2c1 [10-(3-(4-hydroxyphenyl)-4-oxo-4H-chromen-7-yloxy)decanoic acid] | 50 nM |
| NCCCCOc1ccc2c(=O)c(-c3ccc(O)cc3)coc2c1 [7-(4-Amino-butoxy)-3-(4-hydroxy-phenyl)-chromen-4-one] | 250 nM |
| CC1=C(c2ccccc2)C(=O)OC2CC(Cl)CCC12 (configuration not stated) [7-Chloro-4-methyl-3-phenyl-4a,5,6,7,8,8a-hexahydro-chromen-2-one] | 150 nM |
| C=CCCCCOc1ccc2c(=O)c(-c3ccc(O)cc3)coc2c1 [7-Hex-5-enyloxy-3-(4-hydroxy-phenyl)-chromen-4-one] | 150 nM |
| O=C(O)CCCCCCCCCCCCCCCOc1ccc2c(=O)c(-c3ccc(O)cc3)coc2c1 [16-[3-(4-Hydroxy-phenyl)-4-oxo-4H-chromen-7-yloxy]-hexadecanoic acid] | > 9000 nM |
| C=CCOc1ccc2c(=O)c(-c3ccc(O)cc3)coc2c1 [7-Allyloxy-3-(4-hydroxy-phenyl)-chromen-4-one] | 180 nM |
